Laboratory results as given in article PMC11879040, “Advancing systemic toxicity risk assessment: Evaluation of a NAM-based toolbox approach” (Toxicological Sciences, 2024).
Counter-ions that a name gives are not always drawn.

Columns and labels:
[1] = system: MCF7 cells; assay: High-throughput transcriptomics (HTTr, TempO-Seq), MCF7, 24 h; format: cell-based, human; details: MCF-7; for pod_httr_bifrost PoD: HTTr BIFROST PoD; for podl_path_minbmd PoD: HTTr minimum pathway BMD(L)
Experimental: (§1) HepG2, HepaRG, and MCF7 cells were treated with each compound for 24 h across a dose range of 7 concentrations and lysed using TempO-Seq lysis buffer (BioSpyder Technologies, proprietary kit, see [Middleton et al. 2022] for method details). Sequencing was performed using TempO-Seq (BioClavis) version 2 of the human whole transcriptome panel and analyzed as described previously in Middleton et al.

[2] = system: HepaRG cells; assay: High-throughput transcriptomics (HTTr, TempO-Seq), HepaRG, 24 h; format: cell-based, human; details: HepaRG; for pod_httr_bifrost PoD: HTTr BIFROST PoD; for podl_path_minbmd PoD: HTTr minimum pathway BMD(L)
Experimental: as §1

[3] = system: 63 targets with known safety liabilities; assay: In vitro pharmacological profiling (IPP) panel, screening at 10 or 100 µM and dose response, minimum IC50/AC50; format: biochemical; details: lowest AC50 across IPP panel (systemic targets); cell_type -; read-out: ipp_lowest_ac50_systemic PoD
[4] = system: HepG2 cells; assay: High-throughput transcriptomics (HTTr, TempO-Seq), HepG2, 24 h; format: cell-based, human; details: HepG2; for pod_httr_bifrost PoD: HTTr BIFROST PoD; for podl_path_minbmd PoD: HTTr minimum pathway BMD(L)
Experimental: as §1

[5] = system: Thyroid hormone receptor alpha, THRA (h); assay: IPP THRA coactivator recruitment (agonist); format: biochemical, human; details: 10 uM; agonist; T3
[6] = system: Glutamate receptor ionotropic NMDA 1 non-selective, GRIN1 (r)
[7] = system: Tubulin (r); assay: IPP Tubulin binding; set-up: species or system rat; details: 10 uM; ligand/control Colchicine
[8] = human
[9] = system: HepG2 cells; assay: Cell stress panel (CSP), 24 h, 8 concentrations, BIFROST global PoD; format: cell-based; details: HepG2; cell stress panel PoD
Experimental: Compounds were tested using the previously developed cell stress panel ([Hatherell et al. 2020]) and the expanded biomarker panel outlined in Middleton et al. HepG2 cells were treated with all compounds for 24 h across 8 concentrations prior to biomarker analysis. The same plate layout and number of replicates (3 biological and 2 technical) were used as previously for each assay within the panel.

Row | Structure (SMILES) | pod_httr_bifrost PoD [1] | podl_path_minbmd PoD [1] | pod_httr_bifrost PoD [2] | podl_path_minbmd PoD [2] | AC50 [3] | pod_httr_bifrost PoD [4] | podl_path_minbmd PoD [4] | IPP screening %, Coactivator recruitment [5] | Specific binding [6] | IPP screening %, Specific binding [7] | risk [8] | pod_cell_stress PoD [9]
1 | CCCCOC(=O)c1ccc(O)cc1 [Butyl_4-hydroxybenzoate] | 0.02978 µM | 0.1304 µM | 66.4882 µM | 120 µM | 6580 nM | 10.9882 µM | 46.8548 µM | – | – | – | – | –
2 | COc1ccc(O)c(C(C)(C)C)c1 [Butylated_Hydroxyanisole] | 8.844 µM | 25.2807 µM | 6.323 µM | 13.7136 µM | 600 nM | 9.643 µM | 21.4191 µM | – | – | – | – | –
3 | O=C(O)COCCN1CCN(C(c2ccccc2)c2ccc(Cl)cc2)CC1 (centres unmarked) [Cetirizine dihydrochloride, (2-{4-[(4-Chlorophenyl)(phenyl)methyl]piperazin-1-yl}ethoxy)acetic acid--hydrogen chloride (1/2)] | – | – | – | – | – | – | – | 2.0% | 1.4% | 14.0% | 1 | 67.3241 µM
4 | O=C(O)COCCN1CCN(C(c2ccccc2)c2ccc(Cl)cc2)CC1 (centres unmarked) [Cetirizine_dihydrochloride] | 3.21 µM | 78.4644 µM | 0.6956 µM | 13.467 µM | 81 nM | 9.8579 µM | 120 µM | – | – | – | – | –
5 | O=CCCCC=O [Glutaraldehyde Solution] | – | – | – | – | – | – | – | – | – | – | – | 37.601 µM
6 | O=CCCCC=O [Glutaraldehyde_Solution] | 0.2467 µM | 50 µM | 136.152 µM | 500 µM | – | 19.467 µM | 50 µM | – | – | – | – | –
7 | Nc1ccc(NCCO)c([N+](=O)[O-])c1 [HC_Red_3] | 0.8099 µM | 25.6755 µM | 0.1851 µM | 0.9652 µM | 2170 nM | 0.3766 µM | 1.617 µM | – | – | – | – | –
8 | NNc1nncc2ccccc12 [Hydralazine_hydrochloride] | 0.3784 µM | 100.098 µM | 1.593 µM | 111.897 µM | 1200 nM | 1.708 µM | 20.4222 µM | – | – | – | – | –
